Key:
CIN-612 cells = assay: Immunostaining for keratin 10 and filaggrin in CIN-612 raft cultures; format: cell-based
[1] = test system: L1 major capsid protein in CIN-612 rafts; assay: Immunostaining for L1 major capsid protein in CIN-612 raft cross-sections; format: cell-based; conditions: CIN-612 raft cultures, TPA treated; untreated showed no specific nuclear staining
Description: (§1) Raft cultures were grown for 16 days then harvested, fixed in paraformaldehyde, embedded in paraffin and sectioned for immunohistostaining.
In vivo expression of viral late genes is only detected in the highly differentiated suprabasal cells of infected tissue (Pfister, et al., 1987). Using antiserum to the HPV 16 L1 major capsid protein (Bedell, et al., 1991), which cross reacts with the L1 major capsid protein of various HPV types (Bedell, et al., 1991), the production of the L1 major capsid protein in the CIN-612 rafts grown with or without TPA treatment was determined. CIN-612 raft cross-sections were examined by immunostaining with the VECTASTAIN Elite ABC Kit (Vector Laboratories. Inc., Burlingame, Calif.) after treatment with antiserum against the major late capsid protein, L1.

HPV 31b = assay: Virion production in CIN-612 raft cultures (electron microscopy, isopycnic gradient, Southern blot); format: cell-based, Human papillomavirus
Description: as §1
Raft tissue cross-sections were fixed with glutaraldehyde and stained with uranyl acetate. […] Virions were commonly observed in bilobulated koilocytic and dyskeratotic nuclei in which the nuclear chromatin had condensed at the nuclear envelope. At higher magnification the particles could be seen superimposed on heterochromatin, as is often seen in vivo. These particles are not seen in nuclei of untreated CIN-612 raft cultures. Virions approximately 54 nm in diameter were also prevalent in the stratum corneum of raft cultures. […] Similar results have been obtained with material from five separate experiments with different passages of CIN-612 cells.
Because infectious assays have not yet been developed for HPV, we sought to determine if the structures we observed in nuclei of CIN-612 cells were indeed virions. […]
Eight TPA-treated raft cultures were harvested and virions were isolated following a series of low speed and high speed centrifugations. […] Fractions from the bottom of the gradient through fractions determined positive for HPV 31b DNA by dot blot hybridization were dialyzed and examined by Southern blot hybridization. […]

[2] = CIN-612 rafts, 16 nM TPA, 16 to 24 h every four days, grown 16 days, immunostaining

CCCCCCCCCCCCCC(=O)O[C@@H]1[C@@H](C)[C@@]2(O)[C@@H](C=C(CO)C[C@]3(O)C(=O)C(C)=C[C@@H]23)[C@@H]2C(C)(C)[C@]12OC(C)=O [TPA, 12-O-tetradecanoylphorbol-13-acetate]
induction of differentiation (CIN-612 cells; CIN-612 raft cultures, 16 nM TPA in medium, 16 to 24 h every four days): Reproducible induction of differentiation | filaggrin expression (CIN-612 cells; [2]): strong expression of filaggrin was observed throughout the stratum granulosum and into the stratum corneum | keratin 10 expression (CIN-612 cells; [2]): expressed throughout most of the suprabasal layers, including the stratum corneum | expression of physiological markers of keratinocyte differentiation (CIN-612 cells; TPA added to media of organotypic (raft) cultures): increased expression | nuclear staining with L1 antiserum (major late capsid protein) [1]: specific nuclear staining was seen in the stratum granulosum and in the stratum corneum | production of virions (HPV 31b; TPA added to media of organotypic (raft) cultures, electron microscopy): induced production of virions | yield of viral particles (HPV 31b; eight TPA-treated raft cultures, CsCl gradient fractions (lanes 7 and 8), estimated from copy number standards): at least 40 million
